Here are results for three compounds from US20160220464A1 (WUHAN OPTICS VALLEY BRIDGEBIOMED INTERNATIONAL CORPORATION, priority 2013, published 2016).

Like-named read-outs stand apart in the source and are kept apart here. Where no end group is shown, it is not given here.

What all share (format): cell-based
In assay [1] the test system is human aortic smooth muscle cells (HASMC). As to the kind of experiment: PG subtype secretion by EIA in HASMC. As to conditions: 10 nM, 1 μM BK set as 100%.
Assay [2] has as its system human primary vein endothelial cells (HPVEC). As to the kind of experiment: PG subtype secretion by EIA in HPVEC. As to conditions: 10 nM, 1 μM BK set as 100%. The protocol:
In order to study of prostaglandin subtypes secretion triggered by activation of B2 receptor by these three compounds, human primary vein endothelial cells (HPVEC) and human aortic smooth muscle cells (HASMC) were used for PG secretion, following the same protocol above; 10 nM of these compounds, YLB-1, YLB-2, YLB-3 was added. […] These percentage values above were all calibrated with respect to bradykinin.

The target of the next assay is T1, BK B2 receptor (Homo sapiens, UniProt P30411).
T1 construct: The cell strains used in the study were human primary vein endothelial cells (HPVEC) and human aortic smooth muscle cells (HASMC); endogenous in cells; host or cells: human primary vein endothelial cells (HPVEC) and human aortic smooth muscle cells (HASMC)
T1 sequence (P30411 1-391): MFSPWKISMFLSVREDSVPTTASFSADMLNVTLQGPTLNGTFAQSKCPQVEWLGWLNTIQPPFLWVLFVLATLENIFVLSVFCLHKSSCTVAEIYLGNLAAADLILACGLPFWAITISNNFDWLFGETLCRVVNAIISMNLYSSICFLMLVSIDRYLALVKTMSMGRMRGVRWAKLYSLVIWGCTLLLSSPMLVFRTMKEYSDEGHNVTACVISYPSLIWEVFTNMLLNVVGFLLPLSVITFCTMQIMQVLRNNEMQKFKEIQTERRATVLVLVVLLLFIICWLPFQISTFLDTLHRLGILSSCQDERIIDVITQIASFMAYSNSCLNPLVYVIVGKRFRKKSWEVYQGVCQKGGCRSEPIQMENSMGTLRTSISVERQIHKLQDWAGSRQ
As to the kind of experiment: Relative amount of PG secretion in cell supernatant by enzyme immunoassay (EIA). As to conditions: 1 h, 1 μM BK set as 100%; for activation at 0.0001 µM: 0.1 nM; for activation at 0.001 µM: 1 nM; for activation at 0.01 µM: 10 nM; for activation at 0.03 µM: 30 nM; for activation at 0.1 µM: 100 nM; for activation at 0.3 µM: 300 nM. The protocol:
YLB-01, YLB-02 and YLB-03 were selected for the study as described below in Table 1, and BK was used as control. Implantation Two cell lines were transferred into T-75 cell culture flask, and then the instructions of PG kit were strictly followed when cells have reached the appropriate density. Day 1 Cells were seeded in 24 well dishes with minimum medium and allowed to adhere overnight. Day 2 Cells were starved in the serum-free conditioned medium. […] The supernatant was collected after incubation for later use. Day 4 24 well dishes were washed and then dyed for 45-90 min, and then the OD value was measured for analysis. […] In order to detect endogenous prostaglandin, enzyme immunoassay (EIA) was used to determine the amount of prostaglandin and subtypes thereof in the cell supernatant described above.

Another assay has as its target T2, B2 receptor (Homo sapiens, UniProt P30411).
T2 construct: The cell strains used in the study were human primary vein endothelial cells (HPVEC) and human aortic smooth muscle cells (HASMC); endogenous in cells; host or cells: human primary vein endothelial cells (HPVEC) and human aortic smooth muscle cells (HASMC)
T2 sequence (P30411 1-391): T1 sequence (P30411 1-391)
Put plainly: Relative PG secretion with B2 receptor inhibitor HOE-140. As to conditions: 1 μM BK set as 100%. The protocol: Two different cell lines were transferred into T-75 cell culture flask, and then the instructions of PG kit were strictly followed when cells have reached the appropriate density. Day 1. Cells were seeded in 24 well dishes with minimum medium and allowed to adhere overnight. Day 2. Cells were starved in the serum-free conditioned medium. Day 3. […] Cells were incubated at 37° C. for 1 h. The supernatant was collected after incubation for later use. Day 4. 24 well dishes were washed and then dyed for 45-90 min, and then the quantitative analysis was carried out.

The target of assay [3] is T3, bradykinin (BK) B2 receptors (Homo sapiens, UniProt P30411).
T3 construct: The cell strains used in the study were human primary vein endothelial cells (HPVEC) and human aortic smooth muscle cells (HASMC); endogenous in cells; host or cells: human primary vein endothelial cells (HPVEC) and human aortic smooth muscle cells (HASMC)
T3 sequence (P30411 1-391): T1 sequence (P30411 1-391)
As to the kind of experiment: PG secretion by BK B2 receptor agonists (PG kit, OD), EC50 and Emax. As to conditions: HASMC; for EC50: 1 h incubation at 37° C. The protocol: Implantation Two cell lines were transferred into T-75 cell culture flask, and then the instructions of PG kit were strictly followed when cells have reached the appropriate density. Day 1 Cells were seeded in 24 well dishes with minimum medium and allowed to adhere overnight. Day 2 Cells were starved in the serum-free conditioned medium. Day 3 Minimum medium were used, and YLB-01, YLB-02 and YLB-03 were added to the medium, in which the concentration was 0.1 nM, 1 nM, 10 nM, 30 nM, 100 nM, 300 nM, 1 μM, 3 μM and 10 μM, respectively; the cells were incubated at 37° C. for 1 h. The supernatant was collected after incubation for later use. Day 4 24 well dishes were washed and then dyed for 45-90 min, and then the OD value was measured for analysis. The cell strains used in the study were human primary vein endothelial cells (HPVEC) and human aortic smooth muscle cells (HASMC).

The EC50 is the midpoint of the concentration-response curve. Low values mean higher potency in that assay, high ones lower potency in that assay. A word on the Emax: it is the greatest response seen or fitted, relative to the assay's reference. With `CNC(=O)N1CCN(CCC(=O)NCC(=O)N(C)c2ccc(Cl)c(COc3cccc4c3nc(OC)n4Cc3ccccn3)c2Cl)CC1` [YLB-03, 4-{2-[({[2,4-Dichloro-3-(2-methoxy-1-pyridin-2-ylmethyl-1H-benzoimidazol-4-yloxymethyl)-phenyl]-methyl-carbamoyl}-methyl)-carbamoyl]-ethyl}-piperazine-1-carboxylic acid methylamide], in assay [1], the PGD2 entry is on record as “undetectable”, the PGE2 was 27.83 ± 10.66% and the PGF-2a amounted to 8.43 ± 3.57%. In addition, in assay [2], the PGD2 entry is “undetectable”, the PGE2 is recorded as 31.04 ± 8.49% and the PGF-2a entry is “undetectable”. At BK B2 receptor, this compound returned an activation at 0.0001 µM of 0.44 ± 1.22%, an activation at 0.001 µM of 10.3 ± 2.3%, an activation at 0.01 µM of 47.3 ± 4.22% and an activation at 0.03 µM of about 55%. Also, on BK B2 receptor, the activation at 0.1 µM was 71 ± 4.57%, the activation at 0.3 µM came to 86.2 ± 8.51%, the activation at 1 µM worked out at 85 ± 4.83% and the activation at 3 µM worked out at 95.6 ± 7.21%. The same compound gave an activation at 10 µM at BK B2 receptor of 103 ± 9.06%. For the same compound, the “Relative PG Secretion Amount with 1 μM HOE-140” value (from here on “Relative PG Secretion Amount”) at B2 receptor (agonist 0.1 nM + HOE-140 1 μM) was 0.54 ± 3.59%. The “Relative PG Secretion Amount” value at B2 receptor (agonist 1 nM + HOE-140 1 μM) worked out at 2.65 ± 3.81%. Further, the “Relative PG Secretion Amount” value on B2 receptor (agonist 10 nM + HOE-140 1 μM) was found to be 5.64 ± 4.05%. Moreover, the “Relative PG Secretion Amount” value at B2 receptor (agonist 30 nM + HOE-140 1 μM) is on record as 4.90 ± 4.83%. Moreover, the “Relative PG Secretion Amount” value at B2 receptor (agonist 100 nM + HOE-140 1 μM) came to 3.97 ± 2.75%. Further, at B2 receptor (agonist 300 nM + HOE-140 1 μM), the “Relative PG Secretion Amount” value is listed as 0.48 ± 3.50%. Also, the “Relative PG Secretion Amount” value at B2 receptor (agonist 1 μM + HOE-140 1 μM) is given as 5.14 ± 2.67%. In addition, the “Relative PG Secretion Amount” value on B2 receptor (agonist 3 μM + HOE-140 1 μM) is given as 7.33 ± 4.12%. Further, the “Relative PG Secretion Amount” value at B2 receptor (agonist 10 μM + HOE-140 1 μM) came out at 26.08 ± 7.56%. A half-maximal response in assay [3] (EC50) required 0.0262 ± 0.00287 µM. Moreover, the Emax in assay [3] (relative to BK, read-out: Emax) came out at 103%. For the same compound, the Emax in assay [3] (relative to BK) turned out to be 103.48 ± 9.06%.
In assay [3], “RPPGFSPFR [BK, Bradykinin, reference compound]” gave an Emax of 101 ± 5.5%.
With `COc1nc2c(OCc3c(Cl)ccc(N(C)C(=O)CNC(=O)CCc4ccc(NC(C)=O)nc4)c3Cl)cccc2n1Cc1ccccn1` [YLB-02], the PGD2 entry in assay [1] and in assay [2] was “undetectable” throughout. In addition, the PGE2 is given as 26.33 ± 6.78% in assay [1] and 34.15 ± 9.54% in assay [2]. For the same compound, the PGF-2a is on record as 7.1 ± 3.41% in assay [1] and “undetectable” in assay [2]. The activation at 0.0001 µM on BK B2 receptor was 0%. This compound displayed an activation at 0.001 µM on BK B2 receptor of 15.2 ± 3.36%. The compound also returned an activation at 0.01 µM on BK B2 receptor of 26.4 ± 6.06%. Moreover, the activation at 0.03 µM at BK B2 receptor is about 40%. At BK B2 receptor, this compound gave an activation at 0.1 µM of 65.6 ± 8.1%. Also, the activation at 0.3 µM at BK B2 receptor amounted to 67.3 ± 7.02%. Also, the activation at 1 µM on BK B2 receptor is 66.9 ± 8.11%. Also, at BK B2 receptor, the activation at 3 µM amounted to 70.4 ± 5.06%. The activation at 10 µM at BK B2 receptor came out at 65.5 ± 5.78%. The “Relative PG Secretion Amount” value at B2 receptor (agonist 0.1 nM + HOE-140 1 μM) is 3.65 ± 2.77%; at B2 receptor (agonist 1 nM + HOE-140 1 μM) it was 0.21 ± 4.42%; on B2 receptor (agonist 10 nM + HOE-140 1 μM), 5.60 ± 3.43%; on B2 receptor (agonist 30 nM + HOE-140 1 μM) it was 3.33 ± 1.88%; at B2 receptor (agonist 100 nM + HOE-140 1 μM) it was 0.43 ± 4.16%; on B2 receptor (agonist 300 nM + HOE-140 1 μM), 1.05 ± 2.39%. Moreover, the “Relative PG Secretion Amount” value on B2 receptor (agonist 1 μM + HOE-140 1 μM) was 2.87 ± 3.04%; at B2 receptor (agonist 3 μM + HOE-140 1 μM), 4.25 ± 2.06%; at B2 receptor (agonist 10 μM + HOE-140 1 μM), 10.1 ± 4.43%. In assay [3], this compound returned a 50% effective concentration (EC50) of 0.0406 ± 0.00419 µM. The Emax in assay [3] (relative to BK, read-out: Emax) turned out to be 70%; in assay [3] (relative to BK), 70.44 ± 5.06%.
